Our source for the IC50 values is patent US5856509A, “Derivatives of imidazole, their preparation process, the new intermediates obtained, their use as medicaments and the pharmaceutical compositions containing them” (Roussel Uclaf, priority 1994, dated 1999).

One test deals with T1, B receptor of endothelin (Rattus norvegicus, UniProt P21451).
T1 construct: A membrane preparation is produced from the posterior cortex plus cerebellum of a rat; from tissue; host or cells: rat posterior cortex plus cerebellum, membrane preparation
T1 sequence (P21451 27-442): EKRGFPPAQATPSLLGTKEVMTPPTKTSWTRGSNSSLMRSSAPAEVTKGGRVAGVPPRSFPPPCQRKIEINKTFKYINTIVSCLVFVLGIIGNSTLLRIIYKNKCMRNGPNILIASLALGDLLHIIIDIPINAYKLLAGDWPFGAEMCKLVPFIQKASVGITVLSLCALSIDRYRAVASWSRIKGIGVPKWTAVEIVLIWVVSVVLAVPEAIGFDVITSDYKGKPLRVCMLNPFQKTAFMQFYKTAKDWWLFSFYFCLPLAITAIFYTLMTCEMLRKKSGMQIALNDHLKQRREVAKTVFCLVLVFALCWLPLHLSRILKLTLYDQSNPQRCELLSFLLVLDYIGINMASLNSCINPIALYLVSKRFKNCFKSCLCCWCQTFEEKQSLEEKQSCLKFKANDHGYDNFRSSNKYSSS
As to the kind of experiment: Study of the activity on the B receptor of endothelin: displacement of 125I Endothelin on membrane preparation of rat posterior cortex plus cerebellum. The settings on record: Table I, rat posterior cortex plus cerebellum membranes, 25° C., 60 minutes, read-out: B receptor of endothelin IC50 in nanomoles. It is filed as binding. The method, then:
STUDY OF THE ACTIVITY ON THE B RECEPTOR OF ENDOTHELIN
A membrane preparation is produced from the posterior cortex plus cerebellum of a rat. The tissue is ground up in a POLYTRON in a 50 mM Tris buffer pH=7.4.
After 30 minutes at 25° C. (W.B.) the homogenate is centrifuged at 30000 g for 15 minutes (2 centrifugations with intermediate take-up in the Tris buffer pH. 7.4).
(§1) The pellets are resuspended in an incubation buffer (25 mM Tris, 5 microg/ml pepstatin A, 3 microg/ml aprotinin, 0.1 mM PMSF, 3 mM EDTA, 1 mM EGTA pH 7.4).
(§2) 2 ml aliquots are distributed into hemolysis tubes and ^125 I Endothelin (approximately 50000 dpm/tube) and the product to be studied are added. (The product is first tested at 3×10^-5 M three times). When the tested product displaces more than 50% of the radioactivity specifically bound to the receptor, it is tested again according to a range of 7 concentrations so as to determine the concentration which inhibits the radioactivity specifically bound to the receptor by 50%. In this way the 50% inhibitory concentration is determined.
(§3) The non-specific bond is determined by the addition of 10^-6 M endothelin (three times). After incubation at 25° C. for 60 minutes, putting back in the water bath at 0° C., for 5 minutes, filtering under reduced pressure, rinsing with Tris buffer 7.4, the radioactivity is counted in the presence of scintillating Triton.
(§4) The result is expressed directly as the 50% inhibitory concentration (IC50), that is to say as the concentration of product studied expressed in nM, necessary to displace 50% of the specific radioactivity bound to the receptor studied.
(In general: Loss of bound radioactivity is the signal in a displacement assay; it reports binding, not function.)

Another test deals with T2, A receptor of endothelin (Rattus norvegicus, UniProt P26684).
T2 construct: A membrane preparation is produced from the heart (ventricles) of a rat; from tissue; host or cells: rat heart (ventricles), membrane preparation
T2 sequence (P26684 21-426): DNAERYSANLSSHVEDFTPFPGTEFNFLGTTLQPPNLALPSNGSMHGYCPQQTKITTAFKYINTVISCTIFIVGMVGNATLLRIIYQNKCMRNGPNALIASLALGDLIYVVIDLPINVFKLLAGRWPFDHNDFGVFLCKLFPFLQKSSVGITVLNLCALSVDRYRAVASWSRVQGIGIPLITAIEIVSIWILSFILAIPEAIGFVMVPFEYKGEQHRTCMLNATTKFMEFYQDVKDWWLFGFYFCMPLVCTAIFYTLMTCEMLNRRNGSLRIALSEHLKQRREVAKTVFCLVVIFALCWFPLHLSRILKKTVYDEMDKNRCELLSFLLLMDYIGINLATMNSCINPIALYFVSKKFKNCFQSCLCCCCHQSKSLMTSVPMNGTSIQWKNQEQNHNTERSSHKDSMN
As to the kind of experiment: Study of the activity on the A receptor of endothelin: displacement of 125I Endothelin on membrane preparation of rat heart (ventricles). Type of test: binding. To be noted: Table II, rat heart (ventricles) membranes, 25° C., 60 minutes, read-out: B receptor of endothelin IC50 in nanomoles. Here is the method: STUDY OF THE ACTIVITY ON THE A RECEPTOR OF ENDOTHELIN
A membrane preparation is produced from the heart (ventricles) of a rat. The tissue is ground up in a POLYTRON in a 50 mM Tris buffer pH=7.4.
After 30 minutes at 25° C. (W.B.) the homogenate is centrifuged at 30000 g for 15 minutes (2 centrifugations with intermediate take up in the Tris buffer pH. 7.4).
as §1, §2, §3, §4

Broadly, the IC50 is the concentration at which inhibition is half-maximal.

As to `COc1ccc(CSc2nc(Sc3ccccc3)n(Cc3cc4c(cc3Cl)OCO4)c2C(=O)O)cc1` [Example 10, 1-((6-chloro-1,3-benzodioxol-5-yl)methyl)-4-(((4-methoxyphenyl)methyl)thio)-2-(phenylthio)-1H-imidazole-5-carboxylic acid], the IC50 on B receptor of endothelin was found to be 420 nM; at A receptor of endothelin it was 167 nM.

With `COc1ccc(Sc2nc(Sc3ccccc3)n(Cc3cc4c(cc3Cl)OCO4)c2C(=O)O)cc1` [Example 15], the IC50 on B receptor of endothelin was determined as 110 nM; at A receptor of endothelin it was 170 nM.

As to `COc1ccc(Sc2nc(Sc3ccc(OC)cc3)n(Cc3cc4c(cc3Cl)OCO4)c2C(=O)O)cc1` [Example 18, 1-((6-chloro-1,3-benzodioxol-5-yl)methyl)-2,4-bis(4-(methoxyphenyl)thio)-1H-imidazole-5-carboxylic acid], the values for the IC50 at B receptor of endothelin and at A receptor of endothelin were 88 nM and 230 nM, respectively.
